Reference: paper PMC2828546, “Screening-based discovery of drug-like O-GlcNAcase inhibitor scaffolds” (Febs Letters, 2010)
Values joined by “and” are separate entries in the source; they are usually repeats but may differ in a detail not shown here. Equal entries are not always repeated. “Also recorded” adds a separate entry of the source. Where two headings read alike, the source gives them in different places.

How the values were obtained:
[1] = biological target: human hexosaminidase A/B; experiment: HexA/B inhibition, fluorogenic 4MU-NAG substrate; assay type: biochemical; conditions: 230 μM substrate (Km), 15 min, pH 5.7
Procedure: Further kinetic experiments to determine the mode of inhibition were carried out according to the procedure described previously. […] IC50 measurements with CpOGA, hOGA and a mixture of human hexosaminidase A/B activities (Sigma A6152) against the compounds were performed using the fluorogenic 4MU-NAG substrate and standard reaction mixtures as described previously with some changes [[39,31,40]]. Standard reaction mixtures (50 μl) contained 0.2 nM CpOGA, 2 nM hOGA or 50 μ units unit/ml HexA/B in McIlvaine buffer (0.2 M Na2HPO4 mixed with 0.1 M citric acid to pH 5.7) supplemented with 0.1 mg/ml BSA. […] The reactions were run at room temperature for 7 min (CpOGA), 60 min (hOGA) or 15 min (HexA/B).

[2] = biological target: T1, hOGA (Homo sapiens, UniProt O60502); experiment: hOGA inhibition, fluorogenic 4MU-NAG substrate; assay type: biochemical; conditions: for IC50: 80 μM 4MU-GlcNAc (Km), 60 min, pH 5.7; for hOGA BEI (Binding Efficiency Index): BEI = -log(Ki)/M, M in kDa, Ki from IC50 by Cheng-Prusoff; for Selectivity (HexA/B/hOGA): ratio of HexA/B to hOGA inhibition constants
T1 construct: made in house
T1 sequence (O60502 1-916): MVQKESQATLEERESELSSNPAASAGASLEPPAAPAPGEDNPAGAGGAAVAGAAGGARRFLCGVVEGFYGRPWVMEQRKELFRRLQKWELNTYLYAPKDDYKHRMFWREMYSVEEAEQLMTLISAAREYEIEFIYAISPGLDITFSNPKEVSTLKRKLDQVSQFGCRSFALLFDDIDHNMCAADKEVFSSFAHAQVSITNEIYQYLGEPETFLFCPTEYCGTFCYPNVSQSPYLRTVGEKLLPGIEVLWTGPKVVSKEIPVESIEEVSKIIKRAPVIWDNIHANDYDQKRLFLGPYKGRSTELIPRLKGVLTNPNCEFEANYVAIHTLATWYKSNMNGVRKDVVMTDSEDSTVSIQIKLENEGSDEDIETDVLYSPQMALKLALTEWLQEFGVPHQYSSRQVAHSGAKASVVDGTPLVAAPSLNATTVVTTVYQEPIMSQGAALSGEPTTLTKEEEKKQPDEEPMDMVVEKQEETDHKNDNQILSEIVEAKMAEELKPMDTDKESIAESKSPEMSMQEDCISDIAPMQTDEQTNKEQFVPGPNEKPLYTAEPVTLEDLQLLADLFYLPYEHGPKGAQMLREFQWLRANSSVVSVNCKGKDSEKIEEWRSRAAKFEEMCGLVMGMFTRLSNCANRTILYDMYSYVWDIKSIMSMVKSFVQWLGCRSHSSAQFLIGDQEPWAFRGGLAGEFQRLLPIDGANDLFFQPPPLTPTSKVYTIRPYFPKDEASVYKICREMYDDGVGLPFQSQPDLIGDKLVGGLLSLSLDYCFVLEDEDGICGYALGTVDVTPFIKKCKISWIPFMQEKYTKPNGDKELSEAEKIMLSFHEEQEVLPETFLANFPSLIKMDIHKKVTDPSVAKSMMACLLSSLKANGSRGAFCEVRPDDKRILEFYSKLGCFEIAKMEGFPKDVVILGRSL

[3] = biological target: T2, CpOGA (Clostridium perfringens, UniProt Q0TR53); assay type: biochemical
T2 sequence (Q0TR53 31-624 limits assumed): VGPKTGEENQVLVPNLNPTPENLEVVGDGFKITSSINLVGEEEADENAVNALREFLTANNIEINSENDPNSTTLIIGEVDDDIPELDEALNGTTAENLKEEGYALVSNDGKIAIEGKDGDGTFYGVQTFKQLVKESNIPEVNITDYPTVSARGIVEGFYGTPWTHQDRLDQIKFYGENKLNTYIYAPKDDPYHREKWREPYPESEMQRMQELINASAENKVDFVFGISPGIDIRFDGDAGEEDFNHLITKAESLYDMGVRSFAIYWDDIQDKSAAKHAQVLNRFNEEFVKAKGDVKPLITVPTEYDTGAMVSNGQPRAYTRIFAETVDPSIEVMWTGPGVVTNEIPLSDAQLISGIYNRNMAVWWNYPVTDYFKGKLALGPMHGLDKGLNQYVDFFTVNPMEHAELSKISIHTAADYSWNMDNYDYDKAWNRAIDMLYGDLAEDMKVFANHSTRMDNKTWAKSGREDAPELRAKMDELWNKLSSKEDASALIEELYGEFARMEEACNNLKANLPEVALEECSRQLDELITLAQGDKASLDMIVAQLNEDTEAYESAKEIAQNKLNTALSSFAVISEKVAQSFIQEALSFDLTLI

[4] = biological target: T2, CpOGA; experiment: biochemical
[5] = biological target: T1, hOGA; conditions: cited from earlier work
[6] = biological target: T2, CpOGA; conditions: read-out: CpOGA IC50; cited from earlier work
[7] = biological target: T2, CpOGA; experiment: biochemical; conditions: read-out: inhibition of CpOGA in the screen
[8] = biological target: T2, CpOGA; conditions: read-out: CpOGA Ki; cited from earlier work

SMILES	IC50 [1]	IC50 ([2]; 2 nM hOGA, read-out: hOGA IC50)	inhibition mode against CpOGA [3]	hOGA BEI (Binding Efficiency Index) [2]	Selectivity (HexA/B/hOGA) [2]	also measured
CNc1ncnc2nc[nH]c12 [N^6-methyladenine]	300 µM	4 ± 0.3 µM				
Cn1c(=O)c2c(ncn2CC(O)CO)n(C)c1=O (centres unmarked) [Diprophylline, diprophylline]	200 ± 30 µM	> 100 µM	compete for binding to the same CpOGA active site; also recorded: competitive inhibitor	16	1.6	IC50 [4]: 60 ± 10 µM
CC(=O)N1CCN(c2ccc(OCC3COC(Cn4ccnc4)(c4ccc(Cl)cc4Cl)O3)cc2)CC1 (centres unmarked) [Ketoconazole, ketoconazole]	11 ± 1 µM	4 µM and 4.3 µM	compete for binding to the same CpOGA active site			
CN(N=O)C(=O)N[C@H]1C(O)O[C@H](CO)[C@@H](O)[C@@H]1O (some centres unmarked) [Streptozotocin, streptozotocin]				11	30	Ki ([5]; Ki value from literature, read-out: hOGA Ki (printed in hOGA IC50 column)): 1500 µM; IC50 [6]: 30 µM
c1ccc(CNc2ncnc3nc[nH]c23)cc1 [6-benzylaminopurine]						inhibition at 30.2 µM [7]: 30%
CC(=O)Nc1nnc(S(N)(=O)=O)s1 [Acetazolamide, acetazolamide]		47 ± 0.1 µM				
O=C1CC2(CCCC2)CC(=O)N1CCCCN1CCN(c2ncccn2)CC1 [Buspirone, buspirone]	47 ± 3 µM	25 ± 0.1 µM				
CC1CCC(NC(=O)N(CCCl)N=O)CC1 (centres unmarked) [Semustine, semustine]	2500 µM		compete for binding to the same CpOGA active site	16	9	IC50 ([2]; hOGA IC50, 2 nM hOGA): > 100 µM
CCCC1=N[C@@H]2[C@@H](O)[C@H](O)[C@@H](CO)O[C@@H]2S1 [NButGT]						selectivity for hOGA ([5]; thiazoline derivative, selectivity for hOGA): 600 fold
CC(=O)N[C@H]1/C(=N/OC(=O)Nc2ccccc2)O[C@H](CO)[C@@H](O)[C@@H]1O [PUGNAc]						Ki [8]: 0.005 µM
